Source: ChEMBL document CHEMBL5257073, “Development of [18F]Thiazolylacylaminopyridine-Based Glycogen synthase Kinase-3β ligands for positron emission tomography imaging” (Bioorg Med Chem Lett, 2023)
Each block holds one compound with its values, some of them ahead of it.

What was measured:
[1] = Biodistribution in brain of iv dosed KM mouse assessed as radioactivity after 10 mins by imaging analysis; format: ADME, organism-based; conditions: in vivo
[2] = Biodistribution in kidney of iv dosed KM mouse assessed as radioactivity after 60 mins by imaging analysis; format: ADME, organism-based; conditions: in vivo, 1 h
[3] = Biodistribution in liver of iv dosed KM mouse assessed as radioactivity after 10 mins by imaging analysis; format: ADME, organism-based; conditions: in vivo
[4] = Stability in iv dosed KM mouse assessed as radioactivity of parent compound remaining in blood after 1 hrs by radio-HPLC analysis; format: ADME, organism-based; conditions: in vivo
[5] = Biodistribution in muscle of iv dosed KM mouse assessed as radioactivity after 60 mins by imaging analysis; format: ADME, organism-based, Muscle tissue; conditions: in vivo, 1 h
[6] = Biodistribution in stomach of iv dosed KM mouse assessed as radioactivity after 2 mins by imaging analysis; format: ADME, organism-based; conditions: in vivo
[7] = Biodistribution in liver of iv dosed KM mouse assessed as radioactivity after 30 mins by imaging analysis; format: ADME, organism-based; conditions: in vivo, 0.5 h
[8] = Biodistribution in heart of iv dosed KM mouse assessed as radioactivity after 10 mins by imaging analysis; format: ADME, organism-based; conditions: in vivo
[9] = Biodistribution in bone of iv dosed KM mouse assessed as radioactivity after 60 mins by imaging analysis; format: ADME, organism-based, Bone element; conditions: in vivo, 1 h
[10] = Biodistribution in brain of iv dosed KM mouse assessed as radioactivity after 60 mins by imaging analysis; format: ADME, organism-based; conditions: in vivo, 1 h
[11] = Biodistribution in pancreas of iv dosed KM mouse assessed as radioactivity after 10 mins by imaging analysis; format: ADME, organism-based; conditions: in vivo
[12] = Biodistribution in lung of iv dosed KM mouse assessed as radioactivity after 10 mins by imaging analysis; format: ADME, organism-based; conditions: in vivo
[13] = Biodistribution in bone of iv dosed KM mouse assessed as radioactivity after 30 mins by imaging analysis; format: ADME, organism-based, Bone element; conditions: in vivo, 0.5 h
[14] = Biodistribution in spleen of iv dosed KM mouse assessed as radioactivity after 10 mins by imaging analysis; format: ADME, organism-based; conditions: in vivo
[15] = Biodistribution in blood of iv dosed KM mouse assessed as radioactivity after 2 mins by imaging analysis; format: ADME, organism-based; conditions: in vivo
[16] = Biodistribution in liver of iv dosed KM mouse assessed as radioactivity after 2 mins by imaging analysis; format: ADME, organism-based; conditions: in vivo
[17] = Biodistribution in kidney of iv dosed KM mouse assessed as radioactivity after 2 mins by imaging analysis; format: ADME, organism-based; conditions: in vivo
[18] = Lipophilicity, logD of compound; format: physicochemical; conditions: octanol/water
[19] = Biodistribution in blood of iv dosed KM mouse assessed as radioactivity after 60 mins by imaging analysis; format: ADME, organism-based; conditions: in vivo, 1 h
[20] = Biodistribution in kidney of iv dosed KM mouse assessed as radioactivity after 10 mins by imaging analysis; format: ADME, organism-based; conditions: in vivo
[21] = Biodistribution in pancreas of iv dosed KM mouse assessed as radioactivity after 2 mins by imaging analysis; format: ADME, organism-based; conditions: in vivo
[22] = Biodistribution in liver of iv dosed KM mouse assessed as radioactivity after 60 mins by imaging analysis; format: ADME, organism-based; conditions: in vivo, 1 h
[23] = Biodistribution in heart of iv dosed KM mouse assessed as radioactivity after 2 mins by imaging analysis; format: ADME, organism-based; conditions: in vivo
[24] = Biodistribution in blood of iv dosed KM mouse assessed as radioactivity after 10 mins by imaging analysis; format: ADME, organism-based; conditions: in vivo
[25] = Biodistribution in stomach of iv dosed KM mouse assessed as radioactivity after 10 mins by imaging analysis; format: ADME, organism-based; conditions: in vivo
[26] = Biodistribution in spleen of iv dosed KM mouse assessed as radioactivity after 30 mins by imaging analysis; format: ADME, organism-based; conditions: in vivo, 0.5 h
[27] = Biodistribution in kidney of iv dosed KM mouse assessed as radioactivity after 30 mins by imaging analysis; format: ADME, organism-based; conditions: in vivo, 0.5 h
[28] = Biodistribution in spleen of iv dosed KM mouse assessed as radioactivity after 2 mins by imaging analysis; format: ADME, organism-based; conditions: in vivo
[29] = Biodistribution in lung of iv dosed KM mouse assessed as radioactivity after 2 mins by imaging analysis; format: ADME, organism-based; conditions: in vivo
[30] = Biodistribution in lung of iv dosed KM mouse assessed as radioactivity after 30 mins by imaging analysis; format: ADME, organism-based; conditions: in vivo, 0.5 h
[31] = Biodistribution in lung of iv dosed KM mouse assessed as radioactivity after 60 mins by imaging analysis; format: ADME, organism-based; conditions: in vivo, 1 h
[32] = Biodistribution in small intestine of iv dosed KM mouse assessed as radioactivity after 30 mins by imaging analysis; format: ADME, organism-based; conditions: in vivo, 0.5 h
[33] = Stability in mouse plasma assessed as parent compound remaining after 4 hrs by radio-HPLC analysis; format: ADME, cell-free; conditions: read-out: Stability
[34] = Biodistribution in heart of iv dosed KM mouse assessed as radioactivity after 60 mins by imaging analysis; format: ADME, organism-based; conditions: in vivo, 1 h
[35] = Biodistribution in brain of iv dosed KM mouse assessed as radioactivity after 30 mins by imaging analysis; format: ADME, organism-based; conditions: in vivo, 0.5 h
[36] = Biodistribution in bone of iv dosed KM mouse assessed as radioactivity after 2 mins by imaging analysis; format: ADME, organism-based, Bone element; conditions: in vivo
[37] = Biodistribution in pancreas of iv dosed KM mouse assessed as radioactivity after 30 mins by imaging analysis; format: ADME, organism-based; conditions: in vivo, 0.5 h
[38] = Biodistribution in muscle of iv dosed KM mouse assessed as radioactivity after 10 mins by imaging analysis; format: ADME, organism-based, Muscle tissue; conditions: in vivo
[39] = Biodistribution in pancreas of iv dosed KM mouse assessed as radioactivity after 60 mins by imaging analysis; format: ADME, organism-based; conditions: in vivo, 1 h
[40] = Biodistribution in blood of iv dosed KM mouse assessed as radioactivity after 30 mins by imaging analysis; format: ADME, organism-based; conditions: in vivo, 0.5 h
[41] = Biodistribution in stomach of iv dosed KM mouse assessed as radioactivity after 60 mins by imaging analysis; format: ADME, organism-based; conditions: in vivo, 1 h
[42] = Biodistribution in spleen of iv dosed KM mouse assessed as radioactivity after 60 mins by imaging analysis; format: ADME, organism-based; conditions: in vivo, 1 h
[43] = Biodistribution in brain of iv dosed KM mouse assessed as radioactivity after 2 mins by imaging analysis; format: ADME, organism-based; conditions: in vivo
[44] = Biodistribution in muscle of iv dosed KM mouse assessed as radioactivity after 30 mins by imaging analysis; format: ADME, organism-based, Muscle tissue; conditions: in vivo, 0.5 h
[45] = Biodistribution in muscle of iv dosed KM mouse assessed as radioactivity after 2 mins by imaging analysis; format: ADME, organism-based, Muscle tissue; conditions: in vivo
[46] = Biodistribution in small intestine of iv dosed KM mouse assessed as radioactivity after 60 mins by imaging analysis; format: ADME, organism-based; conditions: in vivo, 1 h
[47] = Biodistribution in stomach of iv dosed KM mouse assessed as radioactivity after 30 mins by imaging analysis; format: ADME, organism-based; conditions: in vivo, 0.5 h
[48] = Biodistribution in small intestine of iv dosed KM mouse assessed as radioactivity after 10 mins by imaging analysis; format: ADME, organism-based; conditions: in vivo
[49] = Biodistribution in small intestine of iv dosed KM mouse assessed as radioactivity after 2 mins by imaging analysis; format: ADME, organism-based; conditions: in vivo
[50] = Biodistribution in heart of iv dosed KM mouse assessed as radioactivity after 30 mins by imaging analysis; format: ADME, organism-based; conditions: in vivo, 0.5 h
[51] = Biodistribution in bone of iv dosed KM mouse assessed as radioactivity after 10 mins by imaging analysis; format: ADME, organism-based, Bone element; conditions: in vivo
[52] = target: Glycogen synthase kinase-3 beta (Homo sapiens, UniProt P49841); assay: Inhibition of GSK-3beta (unknown origin)
Glycogen synthase kinase-3 beta, sequence (P49841 whole entry): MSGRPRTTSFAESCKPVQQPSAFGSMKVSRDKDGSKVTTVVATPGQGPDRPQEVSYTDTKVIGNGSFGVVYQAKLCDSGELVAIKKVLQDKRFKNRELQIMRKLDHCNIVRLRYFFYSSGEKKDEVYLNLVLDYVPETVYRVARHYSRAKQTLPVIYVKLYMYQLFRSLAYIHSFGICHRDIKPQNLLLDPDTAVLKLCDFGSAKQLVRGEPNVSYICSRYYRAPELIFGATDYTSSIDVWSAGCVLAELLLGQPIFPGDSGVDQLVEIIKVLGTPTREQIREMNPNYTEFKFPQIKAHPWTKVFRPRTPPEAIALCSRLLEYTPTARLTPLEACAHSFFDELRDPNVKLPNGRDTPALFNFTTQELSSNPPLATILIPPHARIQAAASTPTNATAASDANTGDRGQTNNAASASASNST

SMILES: O=C(NCCF)c1sc(-c2ccnc(NC(=O)C3CC3)c2)nc1OCC1CC1
IC50 [52]: 18.2 nM

SMILES: CN(C)C(=O)c1sc(-c2ccnc(NC(=O)C3CC3)c2)nc1OCCF
IC50 [52]: 152 nM

SMILES: CCOC(=O)c1sc(-c2ccnc(NC(=O)C3CC3)c2)nc1OCCOCCOCCF
IC50 [52]: 345 nM

SMILES: O=C(Nc1cc(-c2nc(OCC3CC3)c(C(=O)N3CC(F)C3)s2)ccn1)C1CC1
IC50 [52]: 42.1 nM

SMILES: CN(C)C(=O)c1sc(-c2ccnc(NC(=O)C3CC3)c2)nc1OCCOCCOCCF
IC50 [52]: 426 nM

SMILES: CCOC(=O)c1sc(-c2ccnc(NC(=O)C3CC3)c2)nc1OCCF
IC50 [52]: 68.1 nM

Further lines, results first:

Drug uptake [1]: 0.77 % ID/g
Drug uptake [2]: 7.11 % ID/g
Drug uptake [3]: 32.93 % ID/g
Stability [4]: 90%
Drug uptake [5]: 0.87 % ID/g
Drug uptake [6]: 2.53 % ID/g
Drug uptake [7]: 23.75 % ID/g
Drug uptake [8]: 5.44 % ID/g
Drug uptake [9]: 2.91 % ID/g
Drug uptake [10]: 0.31 % ID/g
Drug uptake [11]: 5.07 % ID/g
Drug uptake [12]: 4.5 % ID/g
Drug uptake [13]: 2.05 % ID/g
Drug uptake [14]: 4.48 % ID/g
Drug uptake [15]: 5.64 % ID/g
Drug uptake [16]: 22.28 % ID/g
Drug uptake [17]: 16.09 % ID/g
logD [18]: 2.24
Drug uptake [19]: 1.11 % ID/g
Drug uptake [20]: 14.4 % ID/g
Drug uptake [21]: 7.32 % ID/g
Drug uptake [22]: 15.27 % ID/g
Drug uptake [23]: 8.03 % ID/g
Drug uptake [24]: 3.5 % ID/g
Drug uptake [25]: 3.29 % ID/g
Drug uptake [26]: 2.91 % ID/g
Drug uptake [27]: 13.09 % ID/g
Drug uptake [28]: 5.28 % ID/g
Drug uptake [29]: 7.28 % ID/g
Drug uptake [30]: 2.87 % ID/g
Drug uptake [31]: 1.54 % ID/g
Drug uptake [32]: 24.4 % ID/g
remaining at 4 h [33]: > 95%
Drug uptake [34]: 1.73 % ID/g
Drug uptake [35]: 0.42 % ID/g
Drug uptake [36]: 2.83 % ID/g
Drug uptake [37]: 3.05 % ID/g
Drug uptake [38]: 2.18 % ID/g
Drug uptake [39]: 1.76 % ID/g
Drug uptake [40]: 2.18 % ID/g
Drug uptake [41]: 1.88 % ID/g
Drug uptake [42]: 1.4 % ID/g
Drug uptake [43]: 1.68 % ID/g
Drug uptake [44]: 1.38 % ID/g
Drug uptake [45]: 3.45 % ID/g
Drug uptake [46]: 31.31 % ID/g
Drug uptake [47]: 2.92 % ID/g
Drug uptake [48]: 11.16 % ID/g
Drug uptake [49]: 9.74 % ID/g
Drug uptake [50]: 3.41 % ID/g
Drug uptake [51]: 2.42 % ID/g
SMILES: CNC(=O)c1sc(-c2ccnc(NC(=O)C3CC3)c2)nc1OCC[18F]

IC50 [52]: 36.5 nM
SMILES: CNC(=O)c1sc(-c2ccnc(NC(=O)C3CC3)c2)nc1OCCOCCF

IC50 [52]: 6 nM
SMILES: CNC(=O)c1sc(-c2ccnc(NC(=O)C3CC3)c2)nc1OCCF

IC50 [52]: 149 nM
SMILES: CN(C)C(=O)c1sc(-c2ccnc(NC(=O)C3CC3)c2)nc1OCCOCCF

IC50 [52]: 422 nM
SMILES: CCOC(=O)c1sc(-c2ccnc(NC(=O)C3CC3)c2)nc1OCCOCCF
